Source: US20110178024A1, “AMYLOID BETA-PEPTIDES AND METHODS OF USE THEREOF” (Ben Gurion University of the Negev Research and Development …, priority 2008, published 2011)
“Also recorded” adds a separate entry of the source. Values belong to the molecule of their own block, whether it stands above or below them.

Tests used:
[1] = system: Aβ-reactive T-cell line 2 (DRB1 1301/0401); test: Human T-cell line proliferation assay, T-cell line 2; assay type: cell-based; conditions: T-cell line 2, autologous PBMCs
Experimental: (§1) PBMCs were isolated from the freshly drawn heparinized whole blood of each study participant (N=133) by Ficoll-Paque (Amersham Pharmacia Biotech, Uppsala, Sweden) gradient centrifugation, according to the manufacturer's instructions. Cells were cultured in 30 wells of 96-well round-bottom plates at 2×10^5 cells/well in RPMI medium (containing 2.5% nonautologous serum, 4 mM L-glutamine, 10 mM HEPES, 1 mM sodium pyruvate, and 10 mM nonessential amino acids) in the presence of pure human Aβ1-42 peptide. On the 5th day of culture, 10 U/ml of recombinant human interleukin (IL)-2 was added by replacing half of the medium with IL-2-containing medium. On day 7 the medium was replaced with IL-2-free medium. On day 10, half of the cells from each well were restimulated with irradiated autologous PBMCs in the presence or absence of 5 μg/ml Aβ for 48 hours and then pulsed with [3H] thymidine for 12 hours. Cells w then harvested, their radioactivity measured (in cpm), and the stimulation index (SI; (cpm in the presence of Aβ divided by cpm in the absence of Aβ) determined. Positive wells (SI≧2.5 and Δcpm of at least 2000) obtained in the split-well assay were restimulated, 14 days after their primary stimulation, in the presence of irradiated (7000 R) autologous PBMCs (2×10^5 cells/well) and Aβ1-42. T-cell lines were then supplemented with IL-2 (10 U/ml) after 48 hours and every 2 days thereafter until they reached a resting state.
(§2) Antigen (Ag)-specific proliferative responses were measured by culturing the contents of positive wells from the split-well assay with irradiated PBMCs (2×10^5/well) at 37° C. in duplicate wells in 96-well U-bottom microtiter plates in a final volume of 200 μl of culture medium alone or culture medium containing serially diluted nested Aβ peptides. After 48 hours, 1 μCi of [3H]thymidine (Amersham, Arlington Heights, Ill.) was added to each well in 50 μl of culture medium. The cells were harvested 16 hours later onto fiberglass filters with a cell harvester (Packard, Filtermate 196), and [3H]thymidine incorporation was determined with a Packard Matrix 96 direct counter.

[2] = system: Aβ-reactive T-cell lines; test: Epitope specificity and HLA-DR allele restriction of Aβ-reactive T-cell lines; assay type: cell-based, human; conditions: autologous and semi-autologous PBMCs as antigen-presenting cells
Experimental: as §1, §2
High-resolution HLA typing of PBMCs of the human subjects was carried out at the Brigham and Women's Hospital Clinical Laboratory using the PCR/RFLP method. Genomic DNA was extracted from whole blood or frozen cells. DNA was amplified using locus-specific and group-specific primers for DNA class II loci. DNA fragments were detected using agarose gel electrophoresis and subjected to restriction enzyme digestion, as recommended by the 10th International Histocompatibility Workshop (http://www.ihwg.org/components/ssopr.htm). The DNA fragments were then separated by agarose gel electrophoresis and the specific HLA-DR alleles were analyzed visually.
To identify the HLA-DR alleles that play a role in Aβ immunogenicity, Aβ-reactive T-cell lines were generated from the PBMCs of human subjects as described in Materials and Methods. These T cells were then restimulated with autologous or semi-autologous PBMCs (nonautologous PBMCs bearing one of the autologous DRB1 alleles) to determine their epitope specificity and identify their dominant epitope-presenting HLA-DR alleles. Overall, the PBMCs of 89 of the 133 individuals analyzed in this study yielded positive Aβ-reactive T-cell responses in the split-well assay as described in Materials and Methods and our previous publication ((2003). J Clin Invest 112:415-422). From these 89 PBMC samples, 39 Aβ-reactive T-cell lines were successfully generated and were analyzed for epitope specificity and HLA-DR allele restriction, as shown in FIG. 1. Table 2 lists the HLA-DR alleles whose expression by PBMCs was essential for proliferation of the Aβ-specific T-cell lines. The table also records the frequency of the HLA-DR alleles in our study population and lists the Aβ peptides harboring the dominant T-cell epitopes. […]

[3] = system: Aβ-reactive T-cell line 1 (DRB1 1501/1502); test: Human T-cell line proliferation assay, T-cell line 1; assay type: cell-based; conditions: for T-cell proliferation ([3H]thymidine incorporation), in words: T-cell line 1, autologous PBMCs
Experimental: as §1, §2

[4] = system: splenocyte-derived T cells of HLA-DR15 humanized mice; test: Proliferation assay of mouse-derived T cells, Aβ-immunized DR15 humanized mice; assay type: cell-based; conditions: for T-cell proliferation, in words: mice bearing the DRB1*1501 allele
Experimental: (§3) Mice were immunized by subcutaneous injection of Aβ 1-42 ([…]) emulsified in complete Freund's Adjuvant (CFA) H37Ra (Difco, Detroit, Mich., USA) or in incomplete Freund's Adjuvant (IFA; Sigma, Israel), as indicated in Figure legends. When indicated, pertussis toxin (PTX) (List Biological Laboratories, Campbell, Calif., USA) was injected intravenously (200 ng/mouse) on day 0 and again 48 hours later.
(§4) Popliteal lymph nodes or spleens of immunized mice were harvested and cultured (5×10^6 cells/ml) in U-shaped 96-well-plate culture dishes in DMEM containing 10% fetal calf serum, 10 mM HEPES, 1 mM sodium pyruvate, 10 mM nonessential amino acids, 1% Pen/Strep, and […] b-mercaptoethanol. After 72 hours, 3[H]thymidine ([…]) was added. Cells were harvested after 12 hours, and their radioactivity was measured.

[5] = system: splenocyte-derived T cells of HLA-DR4 humanized mice; test: Proliferation assay of mouse-derived T cells, Aβ-immunized DR4 humanized mice; assay type: cell-based; conditions: mice bearing the DR4 allele
Experimental: as §3, §4

[6] = target: HLA-DR15 (DRB1*1501) (human); test: cell-based or functional assay
[7] = target: HLA-DR4 (DRB1*0401) (human); test: cell-based or functional assay

Molecule: VFFAEDVGSNKGAII (listed as Homo sapiens) [Aβ18-32]
T-cell proliferation ([3H]thymidine incorporation), in words [1]: stimulated
DRB1 allele with which the T-cell-stimulatory Aβ peptide stimulates Aβ-reactive T-cell lines [2]: DRB1*0404; also recorded: DRB1*0401

Molecule: GSNKGAIIGLMVGGV [Aβ25-39]
SI (stimulation index), T-cell proliferation ([3]; T-cell line 1, 5 μg peptide/ml, irradiated autologous PBMCs, 72 hours): 17.3
T-cell proliferation ([3H]thymidine incorporation), in words [3]: specifically stimulated
SI (stimulation index), T-cell proliferation ([4]; DR15 mice, 10 μg/ml, 72 hours): 8.8

Molecule: Aβ1-28: N-terminal fragment of Aβ, residues 1-28; nested overlapping Aβ peptide
T-cell proliferation ([3H]thymidine incorporation), in words [3]: only mild T-cell proliferation
T-cell proliferation, in words [4]: only a mild T-cell response

Molecule: QKLVFFAEDVGSNKGAIIGL (listed as Homo sapiens) [Aβ15-34]
T-cell proliferation ([3H]thymidine incorporation), in words [1]: stimulated
DRB1 allele with which the T-cell-stimulatory Aβ peptide stimulates Aβ-reactive T-cell lines [2]: DRB1*0101

Molecule: Aβ25-42: T-cell-stimulatory Aβ peptides between Aβ residues 25 and 42 (GSNKGAIIGLMVGGVVIA; Amyloid-beta protein 42; UniProt P05067 696-713, looked up, fragment)
DRB1 allele with which the T-cell-stimulatory Aβ peptide stimulates Aβ-reactive T-cell lines [2]: DRB1*1501

Molecule: Aβ19-33: nested overlapping Aβ peptide, residues 19-33 (FFAEDVGSNKGAIIG)
T-cell proliferation ([3H]thymidine incorporation), in words [1]: Substantially lower T-cell proliferation

Molecule: KLVFFAEDVGSNKGA (listed as Homo sapiens) [Aβ16-30]
T-cell proliferation ([3H]thymidine incorporation), in words [1]: stimulated

Molecule: QKLVFFAEDVGSNKGAIIGLMVGGVVIA (listed as Homo sapiens) [Aβ15-42]
T-cell proliferation ([3H]thymidine incorporation), in words [3]: triggered
T-cell proliferation ([3H]thymidine incorporation), in words [1]: triggered
T-cell proliferation, in words [4]: strong T-cell proliferation
T-cell proliferation, in words [5]: induced
DRB1 allele with which the T-cell-stimulatory Aβ peptide stimulates Aβ-reactive T-cell lines [2]: DRB1*1502; also recorded: DRB1*0301

Molecule: QKLVFFAEDVGSNKG (listed as Homo sapiens) [Aβ15-29]
DRB1 allele with which the T-cell-stimulatory Aβ peptide stimulates Aβ-reactive T-cell lines [2]: DRB1*1001

Molecule: LVFFAEDVGSNKGAI (listed as Homo sapiens) [Aβ17-31]
T-cell proliferation ([3H]thymidine incorporation), in words [1]: stimulated
DRB1 allele with which the T-cell-stimulatory Aβ peptide stimulates Aβ-reactive T-cell lines [2]: DRB1*1301

T-cell line 1 proliferation, SI at 5 µg peptide/ml [6]: 17.3 SI
T-cell proliferation of splenocytes of Aβ-immunized DR15 mice, SI at 10 µg/ml [6]: 8.8 SI
Molecule: GSNKGAIIGLMVGGV [Aβ25-39 peptide]

T-cell line 2 proliferation, SI at 5 µg peptide/ml [7]: 6.1 SI
T-cell proliferation of splenocytes of Aβ-immunized DR4 mice, SI at 10 µg/ml [7]: 9.2 SI
Molecule: VFFAEDVGSNKGAII [Aβ18-32 peptide]

T-cell line 1 proliferation, SI at 5 µg peptide/ml [6]: 10.2 SI
Molecule: EDVGSNKGAIIGLMV [Aβ22-36 peptide]

T-cell line 1 proliferation, SI at 5 µg peptide/ml [6]: 15.8 SI
T-cell proliferation of splenocytes of Aβ-immunized DR15 mice, SI at 10 µg/ml [6]: 14.2 SI
T-cell line 2 proliferation, SI at 5 µg peptide/ml [7]: 7.8 SI
T-cell proliferation of splenocytes of Aβ-immunized DR4 mice, SI at 10 µg/ml [7]: 3.7 SI
Molecule: QKLVFFAEDVGSNKGAIIGLMVGGVVIA [Aβ15-42 peptide]

T-cell line 1 proliferation, SI at 5 µg peptide/ml [6]: 12.6 SI
T-cell proliferation of splenocytes of Aβ-immunized DR15 mice, SI at 10 µg/ml [6]: 12.2 SI
Molecule: KGAIIGLMVGGVVIA [Aβ28-42 peptide]

T-cell line 2 proliferation, SI at 5 µg peptide/ml [7]: 6.4 SI
T-cell proliferation of splenocytes of Aβ-immunized DR4 mice, SI at 10 µg/ml [7]: 5.9 SI
Molecule: KLVFFAEDVGSNKGA [Aβ16-30 peptide]

T-cell line 2 proliferation, SI at 5 µg peptide/ml [7]: 6.2 SI
T-cell proliferation of splenocytes of Aβ-immunized DR4 mice, SI at 10 µg/ml [7]: 6.1 SI
Molecule: LVFFAEDVGSNKGAI [Aβ17-31 peptide]
